Patent publication US20070066638A1, “RYANODINE RECEPTOR BLOCKERS FOR TREATING PAIN” (priority 2005, published 2007)
Marks after values point to notes of the source that are not given here.

Assays:
[1] = system: rats with ligated L5 and L6 spinal nerves; assay: Spinal nerve (L5/L6) ligation model of chronic pain, tactile allodynia by von Frey hairs; assay type: in vivo, rat; settings: compared to a saline solution, 30 minutes after drug administration
[2] = system: sulprostone-induced allodynia in mice; assay: Sulprostone model of transient allodynia; assay type: in vivo
Description: (§1) In mice, it is possible to induce transient allodynia by treating mice with chemical sensitizers. An interperitoneal injection (of a 1 ml/kg volume) of phenylephrine (an alphal receptor agonist) or sulprostone (a EP1 and EP3 prostaglandin receptor agonist) will induce transient allodynia. Alternatively, an intrathecal injection of NMDA (in a 5 ul volume) will also induce transient allodynia. The injected mice are assessed for allodynia once every 5 minutes over a 15-50 min period post injection by light stroking of the flank with a paintbrush. The allodynia response was ranked as follows: 0. No response; 1, mild squeaking with attempts to move away from the paintbrush; 2, vigorous squeaking, biting at the paintbrush and strong efforts to escape. Data is expressed as the average total score for each group. (Each animal can have a maximum score of 16 over the 50-min period.) * indicates significant difference (P<0.05) relative to sulprostone, NMDA or phenylephrine-treated rats.

[3] = system: phenylephrine-induced allodynia in mice; assay: Phenylephrine model of transient allodynia; assay type: in vivo; settings: maximum score 16
Description: as §1

[4] = system: NMDA-induced allodynia in mice; assay: NMDA model of transient allodynia; assay type: in vivo; settings: maximum score 16
Description: as §1

[5] = system: capsaicin-induced allodynia in Sprague-Dawley rats; assay: Capsaicin model, tactile allodynia (von Frey filament); assay type: in vivo, rat
Description: Intraplantar injection of capsaicin, the active ingredient in red hot chili peppers, will induce neurogenic inflammation and transient allodynia.
Methods/subjects: Eight to ten male Sprague-Dawley rats (Charle Rivers, Sprague-Dawley, 200-300 grams) were used in these experiments. Rats received a unitlateral intradermal injection (10 ul) of capsaicin (0.1%) superficially in the mid-plantar surface of the hind paw. A successful injection was confirmed by the apperance of a bleb after intraplantar capsaicin administartion. Capsaicin, the pungent ingredient in hot peppers, has been used to produce hyperalgesia (mildly painful sensory stimuli are perceived as highly painful) in humans. When applied topically or injected into the skin, capsaicin produces burning pain, hyperalgesia to heat within the immediate vicinity of capsaicin application, and mechanical hyperalgesia within a large sorrounding (Hohmann AG, et al.). On the rat hind paw, there are no major subjective behaviour or clinical observations such as marked redness, limping, chronic licking and swelling associated with this model except for the immediate bleb formation of the given agent on the plantar surface right after the injection and as reported in the literature, short term tactile allodynia, extreme thermal […] which persist for one week.
Allodynia Assessment: Rats were placed in Plexiglas cages positioned over an elevated wire mesh platform and habituated to the testing environment for 15 to 25 min before testing. Tactile allodynia was assessed using a single von frey filament (5.18) with a bending force of 10 grams (Dixon). Tactile allodynia refers to a nocifensive behavior elicited by a light touch or innocuous (here, mechanical) stimulus and was operationally defined as a lowering of the threshold for paw withdrawal from punctate mechanical stimulation (Hohmann AG, et al.). The filaments were positioned in contact with the hind paw for a duration of 5 s or until a withdrawal response occurred and repeated 10 consecutive times. This procedure was repeated three times to obtain a total of thirty responses and then averaged. Contralateral testing was also done; no capsaicin was given. Data are presented as paw withdrawl frequency (%). * indicates significant difference (P<0.05) relative to vehicle-treated rats.

[6] = system: rats; assay: Rotarod motor performance; assay type: in vivo, rat; settings: fifteen minutes post-dosing, acceleration mode 5-15 RPM, in s (unit assumed)
From the text: The Rotamex® 4/8 Rota-rod is a device to test the motor performance decrement, performance time, partial or complete ataxia, and the motor coordination in laboratory animals. The principle of this system is to measure the time each animal manages to maintain walking on the moving rod. Drugs or conditions that cause muscular relaxation will interfere with this coordination and agility, causing the animal to fall from a safe height to a grid below.
The animals were conditioned before performing the test. Animals were required to pass three stages of conditioning on the Rota-rod prior to inclusion in the experiment. During the first stage of conditioning, animals were required to perch on the stationary rod for 30 seconds to accustom themselves to the environment.
Rats that fail to perch for 30 seconds will fall to the grid below. The fall alone typically serves as an adequate aversive stimulus and the animals learn to stay on the perch.
In the second stage of conditioning, the animals that passed the first stage of conditioning were then allowed to walk at a constant speed of 5-rpm for 90 seconds. Any animal that fell off the rod during this trial were allowed to fall to the grid below. Animals are required to stay on the rod for 90 seconds in three consecutive trials out of six total trials, or else they were excluded from the study.
In the final stage of conditioning, about 10-30 minutes after the last trial for each animal that passed the first two stages of conditioning, the animals were placed back on the rod in groups of four and allowed to run in an acceleration mode with a start speed of 5 rpm and an end speed of 15 rpm for 90 seconds. […] A mean performance time was calculated for all animals that managed to stay on the rotating rod for at least 80 seconds. […] Mean performance times were calculated and used as pre-drug baseline values. […] Fifteen minutes post-dosing, the animals were placed back on the rod and the mean performance time in acceleration mode (5-15 RPM) is measured again. […]

[7] = system: Sprague-Dawley rats; assay: Activity monitor (locomotor activity); assay type: in vivo, rat; settings: 10 mg/kg intraperitoneal, thirty minutes after injection
Description: Locomotor activity of male Sprague-Dawley rats (Charles River, Wilmington, Mass.) weighing approximately 300 grams was measured thirty minutes following intraperitoneal injection of vehicle or test compound. Test animals were placed in a dark chamber and a Digicom analyzer (Omnitech Electronic, Columbus, Ohio), which records the number of interruptions of an array of 32 photoelectric beams in the X and Y orientation, quantitated exploratory behavior during a five-minute period. Horizonal activity (HD) and total distance (TD) are presented, as well as % vehicle values. * indicates significant difference (P<0.05) relative to vehicle-treated rats.

[8] = system: ryanodine receptor-channel complex; settings: See Biochemistry 2001, 40, 531-542; cited from earlier work

## O=C1CN(N=Cc2ccc(-c3ccc([N+](=O)[O-])cc3)o2)C(=O)N1 [Dantrolene, 1-[[5-(p-Nitrophenyl)furfurylidene]amino]hydantoin]
[1]; i.p. 300 ng/kg
  reversal of allodynic pain (tactile allodynia): reverses the allodynic pain
[1]; i.p. 3000 ng/kg
  reversal of allodynic pain (tactile allodynia): reverses the allodynic pain
[1]; i.p. 100 mg/kg
  reversal of allodynic pain (tactile allodynia): reverses the allodynic pain
[1]; i.p. dose of 100 ng/kg
  reversal of allodynic pain (tactile allodynia): reverses the allodynic pain
[2]; Sulprostone 300 ng/kg + Dantrolene 3 mg/kg, maximum score 16
  Mean pain score: 12.6 ± 1.5
[2]; Sulprostone 300 ng/kg + Dantrolene 10 mg/kg, maximum score 16
  Mean pain score: 9.5 ± 1.9*
[2]; Sulprostone 300 ng/kg + Dantrolene 20 mg/kg, maximum score 16
  Mean pain score: 4.8 ± 0.9*
[3]; PE 100 ng/kg + Dantrolene 3 mg/kg
  Mean pain score: 9.4 ± 1.6
[3]; PE 100 ng/kg + Dantrolene 10 mg/kg
  Mean pain score: 6.5 ± 1.2*
[4]; NMDA 100 ng + Dantrolene 3 mg/kg
  Mean pain score: 9.3 ± 0.8*
[4]; NMDA 100 ng + Dantrolene 10 mg/kg
  Mean pain score: 7.0 ± 1.0*
[5]; Injected paw, 15 min after capsaicin, dantrolene 3 mg/kg IP 30 minutes before capsaicin
  paw withdrawl frequency: 36 ± 3.7%
[5]; Injected paw, 30 min after capsaicin, dantrolene 3 mg/kg IP 30 minutes before capsaicin
  paw withdrawl frequency: 8 ± 1.7 * %
[5]; Injected paw, 60 min after capsaicin, dantrolene 3 mg/kg IP 30 minutes before capsaicin
  paw withdrawl frequency: 7 ± 2.1%
[5]; Injected paw, Baseline before Caps., dantrolene 3 mg/kg IP
  paw withdrawl frequency: 7 ± 0.9%
[5]; Uninjected paw, 15 min., dantrolene 3 mg/kg IP
  paw withdrawl frequency: 5 ± 1.1%
[5]; Uninjected paw, 30 min., dantrolene 3 mg/kg IP
  paw withdrawl frequency: 2 ± 1.1%
[5]; Uninjected paw, 60 min., dantrolene 3 mg/kg IP
  paw withdrawl frequency: 3 ± 1.3%
[5]; Uninjected paw, Baseline, dantrolene 3 mg/kg IP
  paw withdrawl frequency: 5 ± 1%
[6]; 3 mg/kg IP
  Mean time on bar: 74.33 ± 7.47
[6]; 10 mg/kg IP
  Mean time on bar: 79.67 ± 5.43
[6]; 20 mg/kg IP
  Mean time on bar: 37.67 ± 10.4*
[7]
  HA % vehicle: 82.4%
  TD % vehicle: 59.4%
[7]; five-minute period
  HA (horizontal activity): 1125.6 ± 114.5
  TD (total distance): 290 ± 48.4
[8]
  action on ryanodine receptor-channel complex: antagonist of the ryanodine receptor-channel complex

## CN[C@H](CC(=O)O)C(=O)O [NMDA]
[4]; NMDA 100 ng intrathecal alone
  Mean pain score: 14.2 ± 1.1

## CNC[C@H](O)c1cccc(O)c1 [PE, phenylephrine]
[3]; PE 100 ng/kg alone
  Mean pain score: 11.3 ± 0.9

## CS(=O)(=O)NC(=O)CCC/C=C\C[C@H]1C(=O)C[C@@H](O)[C@@H]1/C=C/[C@@H](O)COc1ccccc1 [Sulprostone]
[2]; Sulprostone (I.P) 300 ng/kg alone, total score, maximum 16
  Mean pain score: 14.0 ± 0.5
